Test results as given in US20080234258A1, “Dihydroxyanthraquinones and Their Use” (priority 2005, published 2008).

Columns and labels:
[1] = system: LPS-induced TNFα secretion; assay: LPS Mouse Assay, serum TNFα by ELISA; format: in vivo; settings: Balb C ByJ mice, 1 mg/kg LPS i.p., serum 2 hours after LPS
Procedure: (§1) 7 week old Balb C ByJ mice (24-28 g) were administered, either by oral (10 ml/kg) administration, with vehicle or test article. 30 minutes later, these animals were challenged with an intraperitoneal injection of 1 mg/kg LPS. 2 hours after LPS challenge, blood samples were collected under light isoflurane anaesthesia into normal tubes by retro-orbital puncture. Samples were allowed to clot at room temperature and then spun at 6000 g for 3 min at 4° C. Serum was stored at −20° C. until use. Serum TNFα and IL-10 levels were analysed in duplicate by ELISA technique.

[2] = system: IL-1β; assay: LPS Mouse Assay, IL-1β levels; format: in vivo; settings: 3, 10 and 30 mg/kg oral, Balb C ByJ mice, 1 mg/kg LPS i.p., serum 2 hours after LPS
Procedure: as §1

[3] = system: intra-plantar carrageenan induced paw oedema; assay: Carrageenan Paw Assay; format: in vivo; settings: 0.3 to 30 mg/kg oral gavage, male Wistar rats, paw measured 1-5 hours after carrageenan
Procedure: Fasted (18 hour) male Wistar rats (105-130 g) were weighed and a basal mercury plethysmometer reading was taken of the right hind paw by submerging the paw in the mercury up to the tibiotarsal joint. Subsequently, vehicles, reference items and test articles were administered by oral gavage (10 ml/kg). 30 minutes after treatment, 0.1 ml of 2% carrageenan in 0.9% saline was injected into the subplanatar area of the right hind paw. The right paw was measured again with the plethysmometer, at 1, 2, 3, 4 and 5 hours after carrageenan administration.

[4] = system: TIMP-1; settings: rabbit articular chondrocytes; cited from earlier work
[5] = system: pro-MMPs-1, -3, -9 and -13; settings: rabbit articular chondrocytes; cited from earlier work
[6] = system: cytokine gene expression; settings: model of lupus nephritis; cited from earlier work
[7] = system: IL-1β and TNFα; settings: human osteoarthritic synovium and chondrocytes; cited from earlier work

O=C1c2cccc(OC(=O)C3CCOCC3)c2C(=O)c2c(OC(=O)C3CCOCC3)cc(C(=O)N3CCOCC3)cc21 [Example 1, 1,8-bis(tetrahydropyran-4-carbonyloxy)-3-(morpholine-4-carbonyl)-9,10-dioxo-9,10-dihydroanthracene]
effect on LPS-induced TNFα secretion ([1]; 30 mg/kg oral): produced an effect
IL-1β levels from LPS stimulus [2]: reduced IL-1β levels
effect in carrageenan induced paw oedema model of inflammation [3]: dose-dependant effect

CCNC(=O)c1cc(OC(=O)C2CCOCC2)c2c(c1)C(=O)c1cccc(OC(=O)C3CCOCC3)c1C2=O [Example 2, 1,8-bis(tetrahydropyran-4-carbonyloxy)-3-ethylcarbamoyl-9,10-dioxo-9,10-dihydroanthracene]
effect on LPS-induced TNFα secretion ([1]; 10 mg/kg oral): inhibited

COCCOC(=O)c1cc(OC(=O)C2CCOCC2)c2c(c1)C(=O)c1cccc(OC(=O)C3CCOCC3)c1C2=O [Example 3, 4,5-bis(tetrahydropyran-4-carbonyloxy)-9,10-dioxo-9,10-dihydroanthracene-2-carboxylic acid, 2-methoxyethyl ester]
effect on LPS-induced TNFα secretion ([1]; 30 mg/kg oral): produced an effect

CCOC(=O)c1cc(OC(=O)C2CCOCC2)c2c(c1)C(=O)c1cccc(OC(=O)C3CCOCC3)c1C2=O [Example 4, 4,5-bis(tetrahydropyran-4-carbonyloxy)-9,10-dioxo-9,10-dihydroanthracene-2-carboxylic acid, ethyl ester]
effect in carrageenan induced paw oedema model of inflammation [3]: dose-dependant effect

CC(=O)Oc1cccc2c1C(=O)c1c(OC(C)=O)cc(C(=O)O)cc1C2=O [diacerein]
production of tissue inhibitor of metalloproteinases (TIMP-1) [4]: upregulating
production of pro-matrix metalloproteinases (pro-MMPs-1, -3, -9 and -13) [5]: down-regulate

O=C(O)c1cc(O)c2c(c1)C(=O)c1cccc(O)c1C2=O [rhein, 1,8-dihydroxyanthraquinone-3-carboxylic acid]
production of tissue inhibitor of metalloproteinases (TIMP-1) [4]: upregulating
cytokine gene expression [6]: inhibit
production of pro-matrix metalloproteinases (pro-MMPs-1, -3, -9 and -13) [5]: down-regulate
production of pro-inflammatory cytokines (IL-1β and TNFα) [7]: inhibit
